Measurements taken from US20120238520A1, “Novel Medical Use” (priority 2009, published 2012).
Counter-ions that a name gives are not always drawn.

Key:
Type in all cases: in vivo, rat
[1] = tested on: HCl-instilled rats; test: HCl (acid aspiration, chemical injury) model of acute lung injury in anesthetized, ventilated rats; conditions: rats 2 h after intratracheal HCl pH 1.5, vs HCl alone
From the text: (§1) The preparation of anesthetized, ventilated rats was used to carry out the below described examples. Techniques of the below described examples have been published (Frank J A, Gutierrez J A, Jones K D, et al.: Low tidal volume reduces epithelial and endothelial injury in acid-injured rat lungs. Am. J. Respir. Crit. Care Med. 165:242-249, 2002; Folkesson H G, Nitenberg G, Oliver B L, et al.: Upregulation of alveolar epithelial fluid transport after subacute lung injury in rats from bleomycin. Am. J. Physiol. 275:L478-490, 1998; Folkesson H G, Norlin A, Wang Y, et al., Dexamethasone and thyroid hormone pretreatment upregulate alveolar epithelial fluid clearance in adult rats. J. Appl. Physiol. 88: 416-424, 2000; and Norlin A, Lu L N, Guggino S E, et al., Contribution of amiloride-insensitive pathways to alveolar fluid clearance in adult rats. J. Appl. Physiol. 90: 1489-1496, 2001).
The methods used are published in the above given references. […]
To evaluate the effect of HCl (chemical injury; a model of aspiration-induced acute lung injury), HCl at pH 1.5 was used (FIG. 1, bottom panel illustrates the time scheme used for HCl treatments). […] Blood was sampled for fluorescence and arterial blood gas measurements every 30 min throughout the experiment. […]

[2] = tested on: rats; test: Test solution instilled into airspaces of anesthetized, ventilated rats without injury-inducing agent; conditions: compound by itself, 10^−4 M in 5% albumin instilled into airspaces, any experimental group
From the text: as §1
The methods used are published in the above given references. A test solution of 5% albumin with and without […] (2R,3R,4S,5R)-2-(6-amino-2-{[(1S)-2-hydroxy-1-(phenylmethyl)ethyl]amino}-9H-purin-9-yl)-5-(2-ethyl-2H-tetrazol-5-yl)tetrahydro-3,4-furandiol maleate dissolved in 0.9% NaCl was used and instilled into the airspaces of rats to measure alveolar fluid clearance with and without the injury-inducing agent (HCl, LPS, or E. coil, see below for details). […]

[3] = tested on: live E. coli-instilled rats; test: Live E. coli DH5α (biological injury) model of sepsis-induced acute lung injury in anesthetized, ventilated rats; conditions: rats 3 h after intratracheal live E. coli DH5α, vs E. coli alone
Method: The preparation of anesthetized, ventilated rats was used to carry out the below described examples. […]
To evaluate the effect of live E. coli (biological injury; a model of sepsis-induced acute lung injury), E. coli (serotype DH5α at the concentration of 10^8 cfu/ml was given intratracheally (FIG. 2). Rats were surgically prepared (anesthetized, tracheotomized, outfitted with a carotid artery catheter, and connected to a ventilator). The rats were ventilated for a 30 min baseline of stable blood gases. An instillation catheter was passed to rest just above the bronchial carina and 1 ml/kg body wt of the solution containing 10^8 cfu/ml E. coli DH5α was rapidly instilled into the lungs. The vascular tracer (FITC-labeled albumin) was given after 15 min stabilization time and the 5% albumin solution with and without (2R,3R,4S,5R)-2-(6-amino-2-{[(1S)-2-hydroxy-1-(phenylmethyl)ethyl]amino}-9H-purin-9-yl)-5-(2-ethyl-2H-tetrazol-5-yl)tetrahydro-3,4-furandiol maleate was instilled 2 h later into the distal airspaces of the lung. Blood was sampled for fluorescence and arterial blood gas measurements every 30 min throughout the experiment. […] Alveolar fluid clearance, extravascular lung water, and endothelial-epithelial barrier leak were determined.

[4] = tested on: LPS-instilled rats; test: LPS (endotoxin, biochemical injury) model of sepsis-induced acute lung injury in anesthetized, ventilated rats; conditions: rats 16 h after intratracheal LPS 5 mg/kg body wt, vs LPS alone
From the text: as §1, with “2001). […]” for “2001).”
To evaluate the effect of endotoxin (biochemical injury; a model of sepsis-induced acute lung injury), E. coli LPS at the concentration of 5 mg/kg body wt was given intratracheally (FIG. 1, top panel illustrates the time scheme used for LPS treatments). […] Blood was sampled for fluorescence and arterial blood gas measurements every 30 min throughout the experiment. […] Alveolar fluid clearance, extravascular lung water, and endothelial-epithelial barrier leak were determined.

## CCn1nnc([C@H]2O[C@@H](n3cnc4c(N)nc(N[C@H](CO)Cc5ccccc5)nc43)[C@H](O)[C@@H]2O)n1 [(2R,3R,4S,5R)-2-(6-amino-2-{[(1S)-2-hydroxy-1-(phenylmethyl)ethyl]amino}-9H-purin-9-yl)-5-(2-ethyl-2H-tetrazol-5-yl)tetrahydro-3,4-furandiol maleate]
[1]; 10^−4 M compound in 5% albumin instilled into airspaces, FIG. 3 left
  EVLW (extravascular lung water): a reduction in EVLW was observed, albeit EVLW remained elevated
[1]; 10^−4 M compound instilled, ELW remained elevated compared to control, FIG. 4 left
  ELW (excess lung water) reduced by: ~20%
[2]
  edema formation measured as increased EVLW (extravascular lung water): believed not to result in edema formation
[3]; 10^−4 M compound in 5% albumin instilled into airspaces, FIG. 3 right
  EVLW (extravascular lung water): a reduction in EVLW was observed
[3]; 10^−4 M compound instilled, FIG. 4 right
  ELW (excess lung water) reduced by: ~40%
[4]; 10^−4 M compound in 5% albumin instilled into airspaces, FIG. 3 center
  EVLW (extravascular lung water): a reduction in EVLW was observed
[4]; 10^−4 M compound instilled, FIG. 4 center
  ELW (excess lung water) reduced by: ~40%
